Where a name gives a salt, the structure may show the parent alone. Read-outs that look alike come from different tables or passages of the source.
Assays:
Nematospiroides dubius = assay: Anthelmintic efficacy against N. dubius in mice, single oral dose; assay type: in vivo, Nematospiroides dubius (in albino female mice); conditions: for inhibition in vivo at 20 mg/kg: single oral dose 20 mg./Kg.; for inhibition in vivo at 40 mg/kg: single oral dose 40 mg./Kg.; for inhibition in vivo at 0.625 mg/kg: single oral dose 0.625 mg./Kg., adjusted to molar equivalents of tetramisole free base; for inhibition in vivo at 4 mg/kg: single oral dose 4.0 mg./Kg.
Experimental: Albino female mice are each inoculated with about 20 infectious larvae of Nematospiroides dubius. This nematode is a representative of the economical important trichostrongylis worms of ruminants and other hosts, and of nematodes in general. Twenty-two days after inoculation, groups of four randomly selected mice containing adult N. dubius are given single oral doses of test compounds dissolved or suspended in 0.4 ml. of water per 20 gram mouse. At 26 or 27 days after inoculation, treated mice and in each test four randomly selected groups of untreated mice are necropsied. The number of worms in the small intestine of each mouse are determined by microscopic examination. Average worm numbers for each treated group and for the untreated controls are computed and the percent efficacy determined by the customary formula:
(Average Worms in Control - Average Worms in Treated)/(Average Worms in Control) X 100.

in vivo = conditions: for Approx. LD50 /ED50: chemotherapeutic index, mouse oral, N. dubius
From the text: Data on the acute oral toxicity to mice of various single oral doses of the above compounds and several analogs were obtained by conventional procedures, (Table IX hereinafter).

[1] = Heligmosomoides polygyrus, po, as Base, single oral dose, mice, > indicates inactive at dose shown, read-out: Approx. ED50
[2] = Heligmosomoides polygyrus, po, mouse oral, Table IX, read-out: Approx. ED50 vs. N. dubius
[3] = Heligmosomoides polygyrus, po, single oral dose 10 mg./Kg., molar-adjusted, read-out: Percent Nematospiroides Activity
[4] = Heligmosomoides polygyrus, po, molar-adjusted, read-out: Percent Nematospiroides Activity
[5] = mouse, in vivo, po, Approx. LD50, mouse oral, Table IX
[6] = mouse, in vivo, po, LD50, mice, adjusted to molar equivalents of tetramisole free base
[7] = single oral dose 50 Mg./Kg., mice
[8] = single oral dose 100 Mg./Kg., mice
[9] = single oral dose 150 Mg./Kg., mice
[10] = single oral dose 200 Mg./Kg., mice
[11] = Heligmosomoides polygyrus, po, read-out: Percent Nematospiroides Activity
[12] = Heligmosomoides polygyrus, po, single oral dose 1.25 mg./Kg., molar-adjusted, read-out: Percent Nematospiroides Activity
[13] = Heligmosomoides polygyrus, po, single oral dose 2.0 mg./Kg., molar-adjusted, read-out: Percent Nematospiroides Activity
[14] = Heligmosomoides polygyrus, po, single oral dose 5.0 mg./Kg., molar-adjusted, read-out: Percent Nematospiroides Activity
[15] = single oral dose 40 Mg./Kg., mice
[16] = single oral dose 60 Mg./Kg., mice
[17] = single oral dose 80 Mg./Kg., mice
[18] = Heligmosomoides polygyrus, po, continuation of Table X (R1/R4 disubstituted), read-out: ED50
[19] = single oral dose 120 Mg./Kg., mice
[20] = single oral dose 5.0 mg./Kg., molar-adjusted
[21] = single oral dose 10 mg./Kg., molar-adjusted

Compound | ED50 (Nematospiroides dubius; [2]) [mg/kg] | inhibition in vivo at 10 mg/kg (Nematospiroides dubius; [3]) [%] | Approx. LD50 /ED50 (in vivo; Table IX) | LD50 (in vivo; [5]) [mg/kg] | LD50 (in vivo; [6]) [mg/kg] | inhibition in vivo at 1.25 mg/kg (Nematospiroides dubius; [12]) [%] | inhibition in vivo at 2 mg/kg (Nematospiroides dubius; [13]) [%] | inhibition in vivo at 5 mg/kg (Nematospiroides dubius; [14]) [%] | further results
COC(=O)Nc1cccc(C2CN3CCSC3=N2)c1 (racemic) [m-NH-CO-OCH3 dl, dl-m-(2,3,5,6-tetrahydroimidazo[2,1-b]thiazol-6-yl)carbanilic acid methyl ester, hydrochloride] | 15 | 25 | 10 | 150 | ~125 |  |  |  | ED50 (Nematospiroides dubius; [1]): 15 mg/kg; inhibition in vivo at 20 mg/kg (Nematospiroides dubius; [4]): 96%; inhibition in vivo at 40 mg/kg (Nematospiroides dubius; [4]): 100%; Dead/Total (in vivo; [7]): 0/5; Dead/Total (in vivo; [8]): 0/5; Dead/Total (in vivo; [9]): 3/5; Dead/Total (in vivo; [10]): 5/5
O=C(Nc1cccc(C2CN3CCSC3=N2)c1)c1ccc(Cl)c(Cl)c1 (stereo not drawn) [Table XII b1854] |  |  |  |  | 80 to 100 | 52 | 92 | 95 | inhibition in vivo at 0.625 mg/kg (Nematospiroides dubius; [11]): 58%
CC(C)(C)C(=O)Nc1cccc(C2CN3CCSC3=N2)c1 (stereo not drawn) [m-NH-CO-C(CH3)2 l] | 1 | 100 | 100 | 100 | ~100 | 60 | 69 | 90 | ED50 (Nematospiroides dubius; [1]): 1 mg/kg; Dead/Total (in vivo; [7]): 0/6; Dead/Total (in vivo; [8]): 2/6; Dead/Total (in vivo; [10]): 6/6
CCC(=O)Nc1cccc(C2CN3CCSC3=N2)c1 (racemic) [m-NH--CO--C2 H5 dl] | 2 | 100 | 20 | < 40 | 30 to 40 |  | 76 | 100 | ED50 (Nematospiroides dubius; [1]): 2 mg/kg; Dead/Total (in vivo; [15]): 4/5; Dead/Total (in vivo; [16]): 4/6; Dead/Total (in vivo; [17]): 5/5; Dead/Total (in vivo; [8]): 6/6
O=C(C=Cc1ccccc1)Nc1cccc(C2CN3CCSC3=N2)c1 (stereo not drawn) [Table XII b1827] |  | 100 |  |  | ~90 | 60 | 67 | 100 | 
Nc1ccc([N+](=O)[O-])c(C2CN3CCSC3=N2)c1 (stereo not drawn) [R1 =H R4 =NO2] | 2 | 100 | 60 | 120 | 120 to 140 |  | 43 |  | ED50 (Nematospiroides dubius; [18]): 2 mg/kg; inhibition in vivo at 4 mg/kg (Nematospiroides dubius; [4]): 89%; Dead/Total (in vivo; [16]): 0/6; Dead/Total (in vivo; [19]): 2/6; Dead/Total (in vivo; single oral dose 240 Mg./Kg., mice): 6/6
CCCCCCC(=O)Nc1cccc(C2CN3CCSC3=N2)c1 (stereo not drawn) [HNCO(CH2)5 CH3] |  |  |  |  |  |  |  |  | Percent Nematospiroides Activity (Nematospiroides dubius; single oral dose 1.25 mg./Kg., molar-adjusted): 53%; Percent Nematospiroides Activity (Nematospiroides dubius; single oral dose 2.0 mg./Kg., molar-adjusted): 99%; Percent Nematospiroides Activity (Nematospiroides dubius; [20]): 100%; Percent Nematospiroides Activity (Nematospiroides dubius; [21]): 100%; LD50 (in vivo; mice, adjusted to molar equivalents of tetramisole free base): 20 to 25 mg/kg
COC(=O)Nc1cccc(C2CN3CCSC3=N2)c1 (stereo not drawn) [m-NH-CO--OCH3 l, l-m-(2,3,5,6-tetrahydroimidazo[2,1-b]thiazol-6-yl)carbanilicacid methyl ester, hydrochloride] | 7.5 | 61 | 20 | ~150 | ~125 |  |  | 28 | ED50 (Nematospiroides dubius; [1]): 7.5 mg/kg; inhibition in vivo at 20 mg/kg (Nematospiroides dubius; [4]): 100%; inhibition in vivo at 40 mg/kg (Nematospiroides dubius; [4]): 100%; Dead/Total (in vivo; [7]): 0/5; Dead/Total (in vivo; [8]): 0/5; Dead/Total (in vivo; [9]): 1/5; Dead/Total (in vivo; [10]): 5/5
CC(=O)Nc1cccc(C2CN3CCSC3=N2)c1 (stereo not drawn) [HN--CO--CH3] |  | 100 |  |  | 40 to 60 |  |  |  | inhibition in vivo at 4 mg/kg (Nematospiroides dubius; [4]): 66%
O=C(Nc1cccc(C2CN3CCSC3=N2)c1)c1ccccc1 (stereo not drawn) [Table XII b1839] |  |  |  |  | 50 to 60 | 94 | 100 |  | 
Nc1ccc(Br)c(C2CN3CCSC3=N2)c1 (racemic) [R1 =H R4 =Br, dl-6-(5-amino-2-bromophenyl)-2,3,5,6-tetrahydroimidazo[2,1-b]thiazole, dihydrochloride] | 5 | 100 | 8 | 40 | ~50 |  |  |  | ED50 (Nematospiroides dubius; [18]): 5 mg/kg; inhibition in vivo at 4 mg/kg (Nematospiroides dubius; [4]): 43%; Dead/Total (in vivo; single oral dose 20 Mg./Kg., mice): 0/6; Dead/Total (in vivo; [15]): 2/6; Dead/Total (in vivo; [17]): 6/6
O=C(Nc1cccc(C2CN3CCSC3=N2)c1)c1ccc(Cl)cc1 (stereo not drawn) [Table XII b1847] |  |  |  |  | ~80 | 63 | 90 | 100 | inhibition in vivo at 0.625 mg/kg (Nematospiroides dubius; [11]): 40%
O=C(Nc1cccc(C2CN3CCSC3=N2)c1)c1ccccc1 (racemic) [m-NH-CO dl] | 1 | 100 | 60 | 60 | ~60 | 67 | 94 | 100 | ED50 (Nematospiroides dubius; [1]): 1 mg/kg; inhibition in vivo at 20 mg/kg (Nematospiroides dubius; [4]): 100%; Dead/Total (in vivo; [15]): 0/6; Dead/Total (in vivo; [16]): 3/6; Dead/Total (in vivo; [17]): 4/6; Dead/Total (in vivo; [19]): 5/6
CC(C)(C)CC(=O)Nc1cccc(C2CN3CCSC3=N2)c1 (stereo not drawn) [HNCOCH2 C(CH3)2] |  | 98 |  |  | 80 to 100 |  |  | 59 | 
O=C(Nc1cccc(C2CN3C=CSC3=N2)c1)c1ccccc1 (stereo not drawn) [Table XIV b1987] |  | 100 |  |  | ~120 |  |  | 94 | Percent Nematospirides Activity (Nematospiroides dubius; single oral dose 2.5 mg./Kg., molar-adjusted): 73%
O=C(Nc1cccc(C2CN3CCSC3=N2)c1)c1cccc(Cl)c1 (stereo not drawn) [Table XII b1851] |  |  |  |  | 80 to 100 | 52 | 95 | 97 | inhibition in vivo at 0.625 mg/kg (Nematospiroides dubius; [11]): 40%
CC(C)N(C)c1cccc(C2CN3CCSC3=N2)c1 (racemic) [CH3 N--CH(CH3)2, 6-[m-(isopropylmethylamino)phenyl]-2,3,5,6-tetrahydroimidazo[2,1-b]thiazol] |  |  |  |  | 40 to 60 |  |  |  | inhibition in vivo at 40 mg/kg (Nematospiroides dubius; [4]): 78%; inhibition in vivo at 60 mg/kg (Nematospiroides dubius; Heligmosomoides polygyrus, po, single oral dose 60 mg./Kg., molar-adjusted, read-out: Percent Nematospiroides Activity): 88%
COc1ccc(C(=O)Nc2cccc(C3CN4CCSC4=N3)c2)cc1 (stereo not drawn) [Table XII b1843] |  |  |  |  | 60 to 80 | 58 | 95 | 100 | inhibition in vivo at 0.625 mg/kg (Nematospiroides dubius; [11]): 56%
O=C(CCl)Nc1cccc(C2CN3CCSC3=N2)c1 (stereo not drawn) [H--N--CO--CH2 Cl] |  |  |  |  | 50 to 60 | 84 |  | 100 | inhibition in vivo at 40 mg/kg (Nematospiroides dubius; [4]): 100%; inhibition in vivo at 50 mg/kg (Nematospiroides dubius; Heligmosomoides polygyrus, po, single oral dose 50 mg./Kg., molar-adjusted, read-out: Percent Nematospiroides Activity): 100%
CC(C)C(=O)Nc1cccc(C2CN3CCSC3=N2)c1 (stereo not drawn) [m-NH--CO--CH(CH3)2 l] | 1 |  | 50 | 50 | 60 to 75 | 77 | 96 |  | ED50 (Nematospiroides dubius; [1]): 1 mg/kg; inhibition in vivo at 0.625 mg/kg (Nematospiroides dubius; [11]): 30%; inhibition in vivo at 7.5 mg/kg (Nematospiroides dubius; Heligmosomoides polygyrus, po, single oral dose 7.5 mg./Kg., molar-adjusted, read-out: Percent Nematospiroides Activity): 97%; Percent Nematospiroides Activity (Nematospiroides dubius; [20]): 100%; Percent Nematospiroides Activity (Nematospiroides dubius; [21]): 100%; Dead/Total (in vivo; [7]): 2/8; Dead/Total (in vivo; [8]): 8/8
O=C(Nc1cccc(C2CN3CCSC3=N2)c1)c1ccco1 (stereo not drawn) [Table XII b1864] |  | 99 |  |  | 80 to 100 |  | 37 | 85 | inhibition in vivo at 20 mg/kg (Nematospiroides dubius; [4]): 100%

Source: US3989835A, “Method of using 6-substituted amino phenyl-2,3,5,6-tetra-hydro[2,1-b]thiazoles for controlling gastrointestinal nematodes” (American Cyanamid Company, priority 1974, dated 1976)
